“Also recorded” adds a separate entry of the source. Like-named read-outs stand apart in the source and are kept apart here. Marks after values point to notes of the source that are not given here.
How the values were obtained:
[1] = in vivo
Procedure: (§1) A specific food interaction study was conducted, in which the pharmacokinetic profile of ulipristal acetate and its main metabolite 3877A was evaluated after single administration of a 30-mg ulipristal acetate micronized tablet either under fasted conditions or after a high-fat breakfast. The main pharmacokinetic parameters were evaluated, including maximum plasma concentration (Cmax), area under the drug concentration curve (AUC) from time 0 to time of last determinable concentration or to infinity, and the time to maximum plasma concentration (tmax).
(§2) A second oral administration followed, after at least a 21-day wash-out period.
(§3) Analysis of Cmax and AUC was carried out by analysis of variance using PROC MIXED® program on the logarithmically transformed data. The 90% standard confidence interval limits for relative treatment differences was calculated by geometric means based on logarithmic transformation of the intra-individual ratios of Cmax and AUC.
(§4) The analysis of tmax was based on Wilocoxon-Mann-Whitney test adapted according to the methodology of Koch. Estimate for treatment difference and 90% confidence interval was estimated according to the method of Moses.

[2] = Phase III pregnancy rates after 30 mg ulipristal acetate tablet by food intake prior to treatment; assay type: in vivo, human; conditions: for Observed PR (pregnancy rate): 30 mg tablet
Procedure: With respect to clinical efficacy, data on last food intake prior to study drug was collected in a subset of subjects (n=1185) included in the phase III program of development of the 30 mg ulipristal acetate tablet for emergency contraception. Pregnancy rates (PR) were compared between women who reported having eaten within two hours prior to treatment intake versus those who reported having eaten only earlier.

[3] = used within 72 hours of unprotected intercourse; cited from earlier work
[4] = Food interaction study: bioavailability of a single 30 mg oral dose of ulipristal acetate in fed and fasting states; conditions: for AUC(0-t) / AUC(0-inf) / Cmax / Tmax / half-life: female, human, plasma, oral, 30 mg; for AUC(0-t): AUC0-t; for AUC(0-inf): AUC0-∞
Procedure: as §1, §2, §3, §4

[5] = Fed vs. Fasted condition, ANOVA
[6] = fasted, single 30 mg tablet, mean ± SD
[7] = fed (high-fat breakfast), single 30 mg tablet, mean ± SD

CNc1ccc([C@H]2C[C@@]3(C)[C@@H](CC[C@]3(OC(C)=O)C(C)=O)[C@@H]3CCC4=CC(=O)CCC4=C32)cc1 [3877A, 17α-acetoxy-11β-[4-N-methylamino-phenyl)-19-norpregna-4,9-diene-3,20-dione]
terminal elimination half-life ([1]; human): around 30 h
AUC0-∞ ([1]; human, 30 mg): 265 ng·h/mL
AUC(0-t) ([1]; human, 30 mg): 244 ng·h/mL
Cmax ([1]; human, 30 mg): 86.5 ng/mL
Tmax ([1]; human, 30 mg): 0.75 h
t1/2 ([1]; human, 30 mg): 30.0 ± 7.56^c h
AUC0-t, point estimate of the fed/fasted ratio of least squares geometric means [1]: 121.72^a %
AUC0-∞, point estimate of the fed/fasted ratio of least squares geometric means [1]: 118.73^c %
Cmax, point estimate of the fed/fasted ratio of least squares geometric means [1]: 62.45%

CC(=O)O[C@]1(C(C)=O)CC[C@H]2[C@@H]3CCC4=CC(=O)CCC4=C3[C@@H](c3ccc(N(C)C)cc3)C[C@@]21C [ulipristal acetate, 17α-acetoxy-11β-[4-N,N-dimethylamino-phenyl)-19-norpregna-4,9-diene-3,20-dione]
Expected PR (pregnancy rate) ([2]; food intake 2 h or more before ulipristal acetate intake): 5.56%
Observed PR (pregnancy rate) ([2]; food intake 2 h or more before ulipristal acetate intake, n=905): 1.44%
Expected PR (pregnancy rate) ([2]; food intake less than 2 h before ulipristal acetate intake): 5.27%
Observed PR (pregnancy rate) ([2]; food intake less than 2 h before ulipristal acetate intake, n=279): 1.79%
effect of food on efficacy in emergency contraception (pregnancy rate) ([2]; phase III trials, eaten within two hours prior to intake versus earlier): the same therapeutic efficacy; also recorded: no significant effect
efficacy for preventing pregnancy compared with levonorgestrel [3]: as efficacious as levonorgestrel
AUC0-t, point estimate of the fed/fasted ratio of least squares geometric means [4, 5]: 123.30^a %
AUC0-∞, point estimate of the fed/fasted ratio of least squares geometric means [4, 5]: 126.20^b %
Cmax, point estimate of the fed/fasted ratio of least squares geometric means [4, 5]: 56.25%
higher mean AUC0-∞ with a high-fat breakfast ([4]; compared with administration in a fasted state): 25%
tlag ([4]; fasted, single 30 mg tablet, median (range)): 0.00 (0.00-0.00) h
tlag ([4]; fed (high-fat breakfast), single 30 mg tablet, median (range)): 0.00 (0.00-0.50) h
AUC(0-t) [4, 6]: 467 ng·h/mL
AUC(0-t) [4, 7]: 566 ng·h/mL
AUC(0-inf) [4, 6]: 474 ng·h/mL
AUC(0-inf) [4, 7]: 608 ng·h/mL
Cmax ([4]; fasted, single 30 mg ulipristal acetate micronized tablet, healthy women, mean ± SD): 173 ng/mL
Cmax ([4]; fed (high-fat breakfast), single 30 mg ulipristal acetate tablet, mean ± SD): 99.2 ng/mL
Tmax ([4]; Tmax (median), fasted state, as stated for the printed matter): 0.75 h
Tmax ([4]; Tmax (median), with a high-fat breakfast, as stated for the printed matter): 3 h
half-life ([4]; t1/2, fasted, single 30 mg tablet, mean ± SD): 37.2 ± 7.19 h
half-life ([4]; t1/2, fed (high-fat breakfast), single 30 mg tablet, mean ± SD): 36 ± 7.78 h
half-life ([4]; terminal elimination half-life, average, independently of the food condition): ~36 h
Tmax ([4]; tmax, fasted, single 30 mg tablet, median (range)): 0.75 h
Tmax ([4]; tmax, fed (high-fat breakfast), single 30 mg tablet, median (range)): 3 h

Source: patent US8426392B2, “Method for providing emergency contraception” (Laboratoire HRA-Pharma, priority 2009, dated 2013)
